According to US9926605B2, “Functional genomics screening platform for head and neck cancer” (University of Pittsburgh—of the Commonwealth System of …, priority 2012, dated 2018):

Columns and labels:
[1] = test system: UM-SCC1 cells expressing mutant PTPRD (P1311T); assay: MTT survival and STAT3 promoter activity in UM-SCC1 cells expressing mutant PTPRD; assay type: cell-based, human; details: PTPRD mutant cells compared with controls
Protocol: FIG. 14. […] UM-SCC1 cells expressing mutant PTPRD (P1311T) or vector control were treated with AZD1480 (5 μm) or DMSO (vehicle) followed by MTT assay to determine % survival relative to vehicle control. Results are mean±SEM, performed in triplicate.
(§1) The effect of AZD1480 on STAT3 tyrosine phosphorylation and cell growth was further assessed in a panel of HNSCC cell lines.

[2] = test system: HNSCC patient tumorgrafts; assay: Heterotopic HNSCC patient tumorgrafts in NOD/SCID mice; assay type: in vivo
Protocol: FIG. 12A-B. AZD1480 inhibits HNSCC patient tumorgraft growth in conjunction with reduce pSTAT3 expression. (A) Mice bearing heterotropic HNSCC patient tumorgrafts derived from 2 patients (10 mice per group) were treated with AZD1480 (30 mg/kg) or vehicle control, twice daily by oral gavage. Tumor volumes were measures every other day. Statistical difference was determined at the end of the experiment using the Mann-Whitney two-tailed test. (B) Tumors were harvested at the end of treatment, and whole cell lysates were prepared and subjected to immunoblotting with pSTAT3 (Tyr705) and STAT3 antibody. Beta-tubulin was used to assess protein loading. Densitometry was performed and bar graphs illustrate the cumulative findings from each HNSCC tumorgraph experiment.
In vivo studies have generally relied on xenograft tumors derived from implantation of immortalized HNSCC cell lines into immunocompromised mice. To generate a more clinically relevant platform to assess the antitumor effects of candidate therapies, human tumors were directly inoculated into NOD/SCID mice. To date, implanted tumors from 35 HNSCC patients were obtained according to previously described methods. Twenty-six of these tumors have grown successfully in mice at a median time of 16 weeks (range 6-26 weeks) for a take rate of 74%. […]

9 HNSC cell lines = assay: Proliferation of a panel of HNSCC cell lines; assay type: cell-based; details: Homo sapiens; range in 9 HNSC cell lines tested; data not shown; read-out: EC50 (inhibition of proliferation)
From the text: as §1

[3] = test system: phospho-STAT3 (Tyr705) in UMSCC-1 cells; assay: pSTAT3 (Tyr705) immunoblotting in HNSCC cell line; assay type: cell-based, human; details: increasing concentration, 24 hours, immunoblot
Protocol: FIG. 13. […] UMSCC-1 cells were treated with increasing concentration of AZD1480. After 24 hours, cells were harvested to obtain cell lysates. Forty micrograms of protein/lane were subjected to electrophoresis and immunoblotted for phosphor-STAT3 (Tyr705) and total STAT3. Beta-tubulin was used as a loading control.
as §1

WT JAK2 = WT JAK2 (Homo sapiens, UniProt O60674); details: read-out: enzyme IC50; cited from earlier work
Sequence of WT JAK2 (O60674 whole entry): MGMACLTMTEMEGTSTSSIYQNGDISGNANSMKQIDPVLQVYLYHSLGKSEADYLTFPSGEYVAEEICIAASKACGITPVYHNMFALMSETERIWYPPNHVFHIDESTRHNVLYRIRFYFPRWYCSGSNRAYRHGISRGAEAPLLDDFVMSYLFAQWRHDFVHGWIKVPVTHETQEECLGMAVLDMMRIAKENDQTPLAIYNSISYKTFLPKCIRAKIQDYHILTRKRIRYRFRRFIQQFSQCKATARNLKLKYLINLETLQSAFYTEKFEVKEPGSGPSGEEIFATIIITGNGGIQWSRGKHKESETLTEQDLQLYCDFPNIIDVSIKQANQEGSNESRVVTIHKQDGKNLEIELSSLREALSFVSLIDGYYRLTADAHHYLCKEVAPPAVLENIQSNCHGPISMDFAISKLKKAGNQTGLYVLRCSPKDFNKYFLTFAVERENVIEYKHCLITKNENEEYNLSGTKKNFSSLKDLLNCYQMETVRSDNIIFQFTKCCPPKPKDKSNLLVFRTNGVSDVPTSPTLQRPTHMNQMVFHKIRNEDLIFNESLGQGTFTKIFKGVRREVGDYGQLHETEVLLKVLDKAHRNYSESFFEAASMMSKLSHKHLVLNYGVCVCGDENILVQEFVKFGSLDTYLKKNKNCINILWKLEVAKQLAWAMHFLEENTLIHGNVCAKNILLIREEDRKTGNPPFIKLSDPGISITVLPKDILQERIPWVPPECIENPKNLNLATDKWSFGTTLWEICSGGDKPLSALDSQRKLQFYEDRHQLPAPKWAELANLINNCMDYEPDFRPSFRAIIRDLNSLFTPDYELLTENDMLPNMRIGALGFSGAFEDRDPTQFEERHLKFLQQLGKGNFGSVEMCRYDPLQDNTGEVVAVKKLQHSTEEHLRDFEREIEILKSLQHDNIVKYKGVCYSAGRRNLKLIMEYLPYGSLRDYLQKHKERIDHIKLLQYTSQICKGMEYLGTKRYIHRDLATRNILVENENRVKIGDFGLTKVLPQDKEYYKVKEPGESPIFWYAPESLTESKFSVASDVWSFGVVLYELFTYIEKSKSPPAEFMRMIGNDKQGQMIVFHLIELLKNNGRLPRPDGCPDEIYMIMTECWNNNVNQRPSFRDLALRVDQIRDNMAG

[4] = test system: UMSCC-47 cells expressing PIK3CA (WT) or PIK3CA (E542K) mutant; details: 0 to 10 μM, 72 h; PIK3CA WT or E542K expressing cells vs vector control
Protocol: Retrovirus-infected UMSCC-47 cells expressing control EGFP gene, PIK3CA (WT) or PIK3CA (E542K) mutant were subjected to BEZ-235 (from 0 to 10 μM) treatment for 72 h followed by growth determinations.
To determine the effects of individual PIK3CA mutations on sensitivity to PI3K pathway inhibitors in HNSCC, we tested the effects of a representative PI3K pathway inhibitor (BEZ-235) in HPV-HNSCC cells engineered to express mutant or WT PIK3CA (E542K) a HNSCC line harboring a PIK3CA mutation.

[5] = test system: UM-SCC47 cells expressing the HRAS(Q61K) mutant; assay: Growth inhibition of UM-SCC47 cells expressing HRAS(Q61K); assay type: cell-based, human; details: 250 nM, 24 hours; HRAS(Q61K) vs HRAS WT and EGFP vector control cells, n=4
Protocol: (A) HRAS wildtype (WT) and HRAS (Q61K) mutant or an EGFP vector control was introduced into the HPV-HSNCC cell line, UM-SCC47, by retroviral infection.
To test whether increased PI3K signaling can be achieved by mutations in HRAS, a hotspot HRAS mutation found in our HNSCC cohort, HRAS(Q61K), was generated. Experiments were performed to determine the effect this mutation had on PI3K activation and response to PI3K pathway inhibition.

[6] = test system: PE/CA-PJ49 (PTPRD I1821V) versus PE/CAPJ34 (Clone 12) HNSCC cells; assay: MTT assay in HNSCC cell lines with endogenous mutant versus WT PTPRD; assay type: cell-based, human; details: 24 hours, n=3, mutant PTPRD (I1821V) cells vs WT PTPRD cells
Protocol: To determine if PTPR mutation enhances sensitivity to STAT3 pathway inhibitors, HNSCC cell lines harboring endogenous PTPR mutation were compared with cell lines containing WT PTPRs. Cells were plated at equal density (3×10^4/well), treated with various concentration of the STAT3 inhibitors, Stattic (Sigma-Aldrich, MO), a small molecule inhibitor of STAT3 activation and dimerization, or JSI-124 (Calbiochem, MA) for 24 hours, followed by MTT assay (n=3). EC50 values were determined, with extrapolation at 20 μM, by GraphPad Prism 5 software.

[7] = test system: PCI-52-SD1 cells expressing PTPRT(R1059L); assay: Growth inhibition of PCI-52-SD1 cells expressing PTPRT(R1059L) by JAK/STAT inhibitor; assay type: cell-based, human; details: 24 hours of treatment; PTPRT(R1059L) cells vs vector control cells, n=4
From the text: FIG. 6. Mutation of PTPRT(R1059L) leads to increased sensitivity to STAT3 inhibition in PCI-52-SD1 cells. PCI-52-SD1 cells were infected with retrovirus expressing the PTPRT(R1059L) mutant gene or PTPRT wildtype (WT) versus vector control (pMXs-EGFP vector).
Overall, our models can be used to determine if the mutation detected in a human tumor is important for tumor growth and facilitate selection of the appropriate therapeutic agents.

## Cc1cc(Nc2nc(N[C@@H](C)c3ncc(F)cn3)ncc2Cl)n[nH]1 [AZD1480, 5-chloro-N2-[(1S)-1-(5-fluoropyrimidin-2-yl)ethyl]-N4-(5-methyl-1H-pyrazol-3-yl)pyrimidine-2,4-diamine]
[1]; AZD1480 5 μm, MTT
  survival: decreased survival
[1]
  STAT3 promoter activity: decreased survival and STAT3 promoter activity
[2]; heterotopic HNSCC patient tumorgrafts in mice, AZD1480 30 mg/kg twice daily by oral gavage
  antitumor effects (tumorgraft growth): demonstrated antitumor effects
[2]; heterotopic xenografts from 2 HNSCC human tumors, end of treatment
  expression of pSTAT3 and STAT3 target genes in tumors: decreased expression of pSTAT3 and STAT3 target genes
9 HNSC cell lines
  EC50: 990 to 3800 nM
[3]
  pSTAT3 expression: reduced pSTAT3 expression in a dose- and time-dependent manner
WT JAK2
  IC50: < 3 nM

## Cn1c(=O)n(-c2ccc(C(C)(C)C#N)cc2)c2c3cc(-c4cnc5ccccc5c4)ccc3ncc21 [BEZ-235]
[4]
  sensitivity to BEZ-235 treatment (growth): more sensitive to BEZ-235 treatment than vector control transfected cells
[5]
  sensitivity to growth inhibition: more sensitive to growth inhibition

## CC(C)(O)/C=C/C(=O)[C@](C)(O)[C@H]1[C@H](O)C[C@@]2(C)[C@@H]3CC=C4[C@@H](C=C(O)C(=O)C4(C)C)[C@]3(C)C(=O)C[C@]12C [JSI-124]
[6]
  sensitivity to growth inhibitory effects of STAT3 pathway inhibitors: more sensitive to STAT3 pathways inhibitors
[7]
  sensitivity to growth inhibition: more sensitive to growth inhibition

## O=[N+]([O-])c1ccc2c(c1)S(=O)(=O)C=C2 [Stattic]
[6]
  sensitivity to growth inhibitory effects of STAT3 pathway inhibitors: more sensitive to the growth inhibitory effects
